Test results taken from patent publication US6812225B2, “Therapeutic heterocyclic compounds” (AstraZeneca AB, priority 2001, dated 2004).

system: guinea pigs; experiment: Learned helplessness test; format: in vivo, guinea pig; settings: antidepressant/antianxiety activity
Excerpt: The utility of the compounds for example to treat depression may be shown via a learned helplessness test in guinea pigs, which is used extensively as correlative to antidepressant activity in humans. The learned helplessness test may be carried out as follows: Seventy male Hartley guinea pigs, each weighing about 350-425 gm are fed ad lib, and are housed under a 12-hour light/dark cycle. The procedure consists of two phases: The induction phase and the avoidance training phase. In the induction phase, subjects are placed into standard shuttle cages (20 L×16 W×21 centimeters H) which are fitted with a grid floor. Electrical stimulation (1.25 mA, 10 sec duration) is delivered to the floor of the cage every 90-sec during 1 hour daily sessions. Subjects have no opportunity to escape or to avoid shocks. Induction is conducted for 2 consecutive days.
In avoidance training, testing is also conducted in the shuttle cages, except that the subjects are not returned to the same chamber in which induction had occurred. Additionally, all cages are fitted with a partition with an arch in the center of the cage, through which animals can pass between the left and right halves of the cage. The procedure employed is a standard shuttle avoidance procedure in which a compound, conditioned stimulus (a 10-sec presentation of a tone and turning on of a lamp on the side of the cage that the guinea pig was occupying) serves to indicate presentation of electrical current to the floor of the cage. Shock is presented for a 5 sec period, 5 sec after initiation of the conditioned stimulus. Entry into the opposite side of the shuttle cage via the arched partition prior to shock onset results in the end of the trial (avoidance response). If shock is delivered, entry into the opposite side of the cage results in termination of the shock and CS (escape). Reversal of learned helplessness in the induction subjects correlates to antidepressant activity of the test compound.
Avoidance training, 45-min in duration, is conducted on 2 consecutive days, beginning 48 hr after the final induction session. Seventy subjects are assigned to 1 of 6 groups of 11-12 animals. The groups are as follows:
Groups 2-6 are given induction and avoidance training sessions. Injections are administered immediately following induction sessions and 1 hour prior to avoidance training sessions. A second injection is administered 7-8 hours following the first injection, for a total of 9 injections administered over 5 days. No injections are administered following the final avoidance training session.
Compounds of the present invention may be administered in a volume of 1 ml/kg bwt. Imipramine is dissolved in DI water. The compounds are dissolved in DI water, to which was added a few drops of lactic acid (pH 5.5). […]

Compound	activity in the learned helplessness assay
COc1cc(N2CCN(C)CC2)c2oc(C(=O)Nc3ccc(N4CCOCC4)cc3)cc(=O)c2c1 [Example 31, 6-Methoxy-8-(4-methyl-piperazin-1-yl)-4-oxo-4H-chromene-2-carboxylic acid (4-morpholin-4-yl-phenyl)-amide]	demonstrate activity
CCC(=O)N1CCN(c2ccc(NC(=O)c3cc(=O)c4cc(OC)cc(N5CCN(C)CC5)c4o3)cc2)CC1 [Example 44, 6-Methoxy-8-(4-methyl-piperazin-1-yl)-4-oxo-4H-chromene-2-carboxylic acid [4-(4-propionyl-piperazin-1-yl)-phenyl]-amide]	demonstrate activity
CCS(=O)(=O)N1CCN(c2ccc(NC(=O)c3cc(=O)c4cc(F)cc(N5CCN(C)CC5)c4o3)cc2)CC1 [Example 71]	demonstrate activity
CCC(=O)N1CCN(c2ccc(NC(=O)c3cc(=O)c4cc(F)cc(N5CCN(C)CC5)c4o3)cc2)CC1 [Example 72, 6-flouro-8-(4-methyl-piperazin-1-yl)-4-oxo-4H-chromene-2-carboxylic acid [4-(4-propionyl-piperazin-1-yl)-phenyl]-amide]	demonstrate activity

target: 5-HT1B and 5HT1D receptors; experiment: not given; settings: saturation studies, guinea pig cortex; read-out: Kd value of [3H]GR125743; cited from earlier work

Compound	Kd [pM]
COc1ccc(NC(=O)c2ccc(-c3ccncc3)c(C)c2)cc1N1CCN(C)CC1 [[^3H]-GR125743]	46 ± 4

system: not given; experiment: not given; settings: not given

melting point	Compound
215 to 216 °C	CN1CCN(c2cccc3c2OC(C(=O)Nc2ccc(N4CCOCC4)cc2)CC3)CC1 (racemic) [Example 75, racemic-8-(4-Methyl-piperazin-1-yl)-chroman-2-carboxylic acid (4-morpholin-4-yl-phenyl)-amide]
215 to 216 °C	CN1CCN(c2cccc3c2OC(C(=O)Nc2ccc(N4CCOCC4)cc2)CC3=O)CC1 (racemic) [Example 78, racemic-8-(4-methyl-piperazin-1-yl)-4-oxo-chroman-2-carboxylic acid (4-morpholin-4-yl-phenyl)-amide]
216 °C (dec.)	CN1CCN(c2cccc3c2OC(C(=O)Nc2ccc(N4CCOCC4)cc2)CC3=O)CC1 (single isomer, unassigned) [Example 79, 8-(4-Methyl-piperazin-1-yl)-4-oxo-chroman-2-carboxylic acid (4-morpholin-4-yl-phenyl)-amide]
215 °C (dec.)	CN1CCN(c2cccc3c2OC(C(=O)Nc2ccc(N4CCOCC4)cc2)CC3=O)CC1 (single isomer, unassigned) [Example 80, 8-(4-Methyl-piperazin-1-yl)-4-oxo-chroman-2-carboxylic acid (4-morpholin-4-yl-phenyl)-amide]
206 to 207 °C	CN1CCN(c2cccc3c2OC(C(=O)Nc2ccc(N4CCOCC4)cc2)CC3)CC1 (single isomer, unassigned; (+)) [Example 76, (+)-8-(41-Methyl-piperazin-1-yl)-chroman-2-carboxylic acid (4-morpholin-4-yl-phenyl)-amide]
205.5 to 207 °C	CN1CCN(c2cccc3c2OC(C(=O)Nc2ccc(N4CCOCC4)cc2)CC3)CC1 (single isomer, unassigned; (-)) [Example 77, (−)-8-(4-Methyl-piperazin-1-yl)-chroman-2-carboxylic acid (4-morpholin-4-yl-phenyl)-amide]
217 to 218 °C (dec.)	CN1CCN(c2cccc3c(=O)cc(C(=O)Nc4ccc(N5CCOCC5)cc4)oc23)CC1 [Example 1, 8-(4-methyl-1-piperazinyl)-N-[4-(4-morpholinyl)phenyl]-4-oxo-4H-chromene-2-carboxamide]
158.1 to 158.8 °C	CN1CCN(c2cccc3c(=O)cc(-c4nc5ccc(N6CCOCC6)cc5o4)oc23)CC1 [Example 21, 8-(4-Methyl-piperazin-1-yl)-2-(6-morpholin-4-yl-benzooxazol-2-yl)-chromen-4-one]
248.4 to 249.6 °C	CN1CCN(c2cccc3c(=O)cc(C(=O)Nc4ccc(N5CCOCC5)cc4O)oc23)CC1 [Example 22, 8-(4-Methyl-piperazin-1-yl)-4-oxo-4H-chromene-2-carboxylic acid (2-hydroxy-4-morpholin-4-yl-phenyl)-amide]
245 to 246.8 °C	CN1CCN(c2cccc3c(=O)cc(C(=O)N(C)c4ccc(N5CCOCC5)cc4)oc23)CC1 [Example 25, 8-(4-Methylpiperazin-1-yl)-4-oxo-4H-chromene-2-carboxylic acid methyl-(4-morpholin-4-yl-phenyl)amide]
234 to 236 °C	COc1cc(N2CCN(C)CC2)c2oc(C(=O)Nc3ccc(N4CCOCC4)cc3)cc(=O)c2c1 [Example 31, 6-Methoxy-8-(4-methyl-piperazin-1-yl)-4-oxo-4H-chromene-2-carboxylic acid (4-morpholin-4-yl-phenyl)-amide]
232 to 234 °C	CCS(=O)(=O)N1CCN(c2ccc(NC(=O)c3cc(=O)c4cc(OC)cc(N5CCN(C)CC5)c4o3)cc2)CC1 [Example 45, 6-Methoxy-8-(4-methyl-piperazin-1-yl)-4-oxo-4H-chromene-2-carboxylic acid [4-(4-ethanesulfonyl-piperazin-1-yl)-phenyl]-amide]
195 to 197 °C	COc1cc(N2CCN(C)CC2)c2oc(C(=O)Nc3ccc(N4CCN(C(=O)CCO)CC4)cc3)cc(=O)c2c1 [Example 68, 6-Methoxy-8-(4-methyl-piperazin-1-yl)-4-oxo-4H-chromene-2-carboxylic acid {4-[4-(3-hydroxy-propanoyl)-piperazin-1-yl]-phenyl}-amide]
233 to 234 °C	CCS(=O)(=O)N1CCN(c2ccc(NC(=O)c3cc(=O)c4cc(F)cc(N5CCN(C)CC5)c4o3)cc2)CC1 [Example 71]
244 to 245 °C	CCC(=O)N1CCN(c2ccc(NC(=O)c3cc(=O)c4cc(F)cc(N5CCN(C)CC5)c4o3)cc2)CC1 [Example 72, 6-flouro-8-(4-methyl-piperazin-1-yl)-4-oxo-4H-chromene-2-carboxylic acid [4-(4-propionyl-piperazin-1-yl)-phenyl]-amide]
195 to 199 °C	CN1CCN(c2cc(F)cc3c(=O)cc(C(=O)Nc4ccc(N5CCN(C(=O)CCO)CC5)cc4)oc23)CC1 [Example 73, 6-Fluoro-8-(4-methyl-piperazin-1-yl)-4-oxo-4H-chromene-2-carboxylic acid {4-[4-(3-hydroxy-propanoyl)-piperazin-1-yl]-phenyl}-amide]
236 to 238 °C	CCNC(=O)N1CCN(c2ccc(NC(=O)c3cc(=O)c4cc(F)cc(N5CCN(C)CC5)c4o3)cc2)CC1 [Example 81, 4-[4-({1-[6-Fluoro-8-(4-methyl-piperazin-1-yl)-4-oxo-4H-chromen-2-yl]-methanoyl}-amino)-phenyl]-piperazine-1-carboxylic acid ethylamide]
